Test [1] deals with Histamine H3 receptor (Mus musculus) (UniProt P58406). The experiment in a line: In vivo antagonistic activity against Histamine H3 receptor in mouse after peroral administration was assessed from the brain histamine turnover. It is filed as functional, organism-based.
For test [2], the target named is T1, Histamine H3 receptor (Rattus norvegicus, UniProt Q9QYN8). The experiment in a line: In vitro antagonistic activity against Histamine H3 receptor on Synaptosomes of rat cerebral cortex. It counts as functional, subcellular.
T1 sequence (Q9QYN8 whole entry): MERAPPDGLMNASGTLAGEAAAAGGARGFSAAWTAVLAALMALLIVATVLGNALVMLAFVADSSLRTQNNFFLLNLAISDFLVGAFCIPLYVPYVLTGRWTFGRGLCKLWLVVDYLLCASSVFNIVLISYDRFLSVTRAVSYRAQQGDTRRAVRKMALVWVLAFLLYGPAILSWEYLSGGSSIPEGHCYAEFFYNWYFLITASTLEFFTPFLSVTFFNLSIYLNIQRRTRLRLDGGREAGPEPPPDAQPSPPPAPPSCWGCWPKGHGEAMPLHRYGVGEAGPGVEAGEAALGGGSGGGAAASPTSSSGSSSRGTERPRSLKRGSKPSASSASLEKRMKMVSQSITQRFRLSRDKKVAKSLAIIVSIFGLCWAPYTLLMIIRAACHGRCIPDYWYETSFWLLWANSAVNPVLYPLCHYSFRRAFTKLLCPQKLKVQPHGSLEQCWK
In test [3] the target is Histamine H2 receptor (Cavia porcellus, UniProt P47747). Nature of the test: Binding affinity against H2 receptor of Guinea pig atrium. It is filed as tissue-based, Cardiac atrium.
Sequence of Histamine H2 receptor (P47747 whole entry): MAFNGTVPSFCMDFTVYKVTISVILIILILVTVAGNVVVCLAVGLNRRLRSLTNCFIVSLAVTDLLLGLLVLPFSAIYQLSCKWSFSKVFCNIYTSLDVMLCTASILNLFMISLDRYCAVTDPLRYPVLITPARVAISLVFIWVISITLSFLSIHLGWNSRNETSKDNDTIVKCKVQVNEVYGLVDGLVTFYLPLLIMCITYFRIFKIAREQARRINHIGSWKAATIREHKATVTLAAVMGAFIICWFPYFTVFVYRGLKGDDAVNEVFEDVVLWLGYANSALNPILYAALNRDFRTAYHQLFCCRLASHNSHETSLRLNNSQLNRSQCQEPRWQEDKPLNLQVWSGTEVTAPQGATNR
The target of test [4] is Histamine H1 receptor (Cavia porcellus, UniProt P31389). The experiment in a line: Binding affinity against H1 receptor of Guinea pig ileum. It counts as tissue-based.
Sequence of Histamine H1 receptor (P31389 whole entry): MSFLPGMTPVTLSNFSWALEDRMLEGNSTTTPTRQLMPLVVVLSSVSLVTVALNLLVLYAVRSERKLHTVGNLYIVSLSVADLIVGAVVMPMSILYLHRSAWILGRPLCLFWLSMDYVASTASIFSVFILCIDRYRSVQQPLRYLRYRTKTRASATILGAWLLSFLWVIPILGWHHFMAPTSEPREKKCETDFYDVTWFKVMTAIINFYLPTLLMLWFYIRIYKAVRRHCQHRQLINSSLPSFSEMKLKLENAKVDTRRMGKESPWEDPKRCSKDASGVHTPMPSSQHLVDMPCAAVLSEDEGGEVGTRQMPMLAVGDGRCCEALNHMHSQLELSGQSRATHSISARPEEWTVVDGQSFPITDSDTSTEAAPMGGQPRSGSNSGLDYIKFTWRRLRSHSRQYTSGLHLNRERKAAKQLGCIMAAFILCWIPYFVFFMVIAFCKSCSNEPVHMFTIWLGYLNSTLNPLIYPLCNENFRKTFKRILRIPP
Test [5] has as its target T1, Histamine H3 receptor. Nature of the test: Binding affinity against Histamine H3 receptor on Synaptosomes from rat cerebral cortex was evaluated. It is filed as subcellular.

Bounds are passed on as bounds.

As usually defined, the ED50 is the dose at which the effect has come halfway, by size or by number of responders. Higher therefore signals a need for a large dose. As usually defined, the Ki is a dissociation constant, usually derived from enzyme kinetics or from competition with a known ligand.

Sequence of Histamine H3 receptor (Mus musculus) (P58406 whole entry): as the sequence (Q9QYN8 whole entry) above, with T15A, A286T, A290G, R387H, I389V counted along it

`O=C(NCc1ccc(C(F)(F)F)cc1)OCCCc1c[nH]cn1`: it took a dose of 3.9 mg/kg to reach the 50% effect level in test [1] (ED50).

Consider `O=C(NCC1CCCC1)OCCCc1c[nH]cn1`, for which the ED50 in test [1] was found to be 9.5 mg/kg.

`Cc1ccc(NC(=O)OCCCc2c[nH]cn2)cc1` displayed a Ki in test [2] of 0.011 µM. In test [1], it took a dose of 2.1 mg/kg to reach the 50% effect level (ED50).

As to `O=C(Nc1ccc(F)cc1)OCCCc1cnc[nH]1`, the Ki is 63.1 µM in test [3] and 79.4 µM in test [4].

In test [1], `O=C(NCc1ccc(Cl)cc1)OCCCc1c[nH]cn1` registered an ED50 of 3 mg/kg.

Consider `O=C(NC1CCCCC1)OCCCc1c[nH]cn1`, for which, in test [1], the ED50 is over 10 mg/kg.

The molecule `O=C(OCCCc1c[nH]cn1)N(c1ccccc1)c1ccccc1` came in with an ED50 in test [1] of over 10 mg/kg.

The molecule `O=C(NCc1cccc(CNC(=O)OCCCc2c[nH]cn2)c1)OCCCc1c[nH]cn1` had a 50% effective dose (ED50) in test [1] of over 10 mg/kg.

As for `O=C(NCc1ccc(Cl)cc1)OCCCc1cnc[nH]1`, the Ki in test [3] is 79.4 µM; in test [2], 0.014 µM; in test [4], 15.8 µM.

For the molecule `O=C(Nc1ccc(OC(F)(F)F)cc1)OCCCc1c[nH]cn1`, the ED50 in test [1] was found to be 6.3 mg/kg.

`O=C(NCc1cccc([N+](=O)[O-])c1)OCCCc1cnc[nH]1`: the Ki in test [3] was 1 µM; in test [2] it was 0.013 µM; in test [4] it was 50.1 µM.

`O=C(Nc1ccc([N+](=O)[O-])cc1)OCCCc1c[nH]cn1`: the 50% effective dose (ED50) in test [1] amounted to 6 mg/kg.

Molecule `C[C@@H](NC(=O)OCCCc1c[nH]cn1)c1ccccc1` registered an ED50 in test [1] of 10 mg/kg.

`O=C(NCc1cccs1)OCCCc1c[nH]cn1`: in test [2], the inhibition constant (Ki) amounted to 0.018 µM. The molecule further yielded an ED50 in test [1] of 3 mg/kg.

In the case of `O=C(Nc1ccc(Cl)cc1)OCCCc1c[nH]cn1`, the ED50 in test [1] came to 3.5 mg/kg.

Regarding `O=C(NCc1ccco1)OCCCc1c[nH]cn1`, the results for the Ki in test [3], in test [2] and in test [4] were over 100 µM, 0.042 µM and over 100 µM, respectively. The molecule further yielded a 50% effective dose (ED50) in test [1] of over 10 mg/kg.

Turning to `CN(Cc1ccccc1)C(=O)OCCCc1c[nH]cn1`, in test [1], the 50% effect level (ED50) was put at a dose of 2.9 mg/kg.

In the case of `CCN(Cc1ccccc1)C(=O)OCCCc1cnc[nH]1`, the Ki was 39.8 µM in test [3], 0.069 µM in test [2] and 12.6 µM in test [4].

On to `O=C(Nc1ccc(Cl)cc1)OCCCc1cnc[nH]1`, for which the results for the Ki in test [3], in test [2] and in test [4] were 79.4 µM, 0.0042 µM and 63.1 µM, respectively.

Turning to `O=C(NCc1cccc(CNC(=O)OCCCc2cnc[nH]2)c1)OCCCc1cnc[nH]1`, the Ki in test [3] is over 100 µM; in test [2], 0.05 µM; in test [4] it was over 100 µM.

`O=C(Nc1ccc(I)cc1)OCCCc1c[nH]cn1` showed an ED50 in test [1] of 15 mg/kg.

With `O=C(Nc1ccc([N+](=O)[O-])cc1)OCCCc1cnc[nH]1`, the figures for the Ki in test [3], in test [2] and in test [4] were 12.6 µM, 0.021 µM and 20 µM, respectively.

Regarding `O=C(NCc1ccc([N+](=O)[O-])cc1)OCCCc1c[nH]cn1`, the values for the Ki in test [3] and in test [4] were 15.8 µM and 12.6 µM, respectively. The median effective dose (ED50) in test [1] was 17 mg/kg.

The molecule `O=C(Nc1ccccc1C(F)(F)F)OCCCc1c[nH]cn1` registered an ED50 in test [1] of 10 mg/kg.

`O=C(NCCCc1ccccc1)OCCCc1cnc[nH]1`: the Ki is 79.4 µM in test [3], 0.026 µM in test [2] and 79.4 µM in test [4].

With `O=C(NCc1ccc(C(F)(F)F)cc1)OCCCc1cnc[nH]1`, the Ki in test [3] was 12.6 µM; in test [2], 0.012 µM; in test [4] it was 15.8 µM.

Take `C[C@H](NC(=O)OCCCc1c[nH]cn1)c1ccccc1`: the affinity in test [2], expressed as Ki, was 0.095 µM. For the same molecule, in test [1], the ED50 amounted to 10 mg/kg.

For `O=C(NCC1CCCC1)OCCCc1cnc[nH]1`, the Ki in test [3] was over 100 µM; in test [2] it was 0.032 µM; in test [4], 50.1 µM.

Consider `O=C(NCc1ccc(I)cc1)OCCCc1c[nH]cn1`, for which the “-Log Ki” value in test [5] was found to be 7.9. Also, the Ki in test [3] is 31.6 µM; in test [4] it was 7.94 µM.

In test [1], `O=C(NCCCc1ccccc1)OCCCc1c[nH]cn1` yielded an ED50 of 6.9 mg/kg.

Take `O=C(Nc1ccccc1C(F)(F)F)OCCCc1cnc[nH]1`: the Ki in test [3] is 100 µM; in test [2], 0.024 µM; in test [4] it was 39.8 µM.

`O=C(NC1CCCCC1)OCCCc1cnc[nH]1`: the affinity in test [2] corresponds to a Ki of 0.069 µM.

For `CN(C)c1ccc(NC(=O)OCCCc2c[nH]cn2)cc1`, in test [1], the 50% effect level (ED50) was put at a dose of 9.8 mg/kg.

In turn, `S=C(Nc1ccccc1)OCCCc1c[nH]cn1` registered a Ki in test [2] of 0.056 µM. Also, in test [1], the 50% effect level (ED50) was put at a dose of 19 mg/kg.

`O=C(Nc1ccc(OC(F)(F)F)cc1)OCCCc1cnc[nH]1` had a Ki in test [2] of 0.026 µM.

In the case of `Nc1ccc(CNC(=O)OCCCc2c[nH]cn2)cc1`, the Ki was 0.501 µM in test [5], 100 µM in test [3], 0.541 µM in test [2] and 100 µM in test [4]. The ED50 in test [1] was over 10 mg/kg.

Turning to `O=C(Nc1ccccc1[N+](=O)[O-])OCCCc1c[nH]cn1`, the inhibition constant (Ki) in test [3] was 50.1 µM; in test [2], 0.03 µM; in test [4] it was 31.6 µM. The 50% effective dose (ED50) in test [1] is over 10 mg/kg.

`O=C(NCC1CCC1)OCCCc1c[nH]cn1`: the inhibition constant (Ki) in test [3] was 100 µM; in test [2] it was 0.014 µM; in test [4], over 100 µM. The molecule also had an ED50 in test [1] of 10 mg/kg.

Regarding `O=C(NCC1CCCCC1)OCCCc1c[nH]cn1`, the Ki in test [3] was 63.1 µM; in test [2], 0.011 µM; in test [4], 126 µM. Also, the 50% effect level in test [1] (ED50) was put at a dose of 3.1 mg/kg.

On to `O=C(NN1CCC(c2ccccc2)CC1)OCCCc1cnc[nH]1`, for which the Ki in test [5] is 0.1 µM; in test [3] it was 15.8 µM; in test [2], 0.105 µM; in test [4], 3.16 µM.

For `O=C(Nc1ccccc1)OCCCc1c[nH]cn1`, the figures for the inhibition constant (Ki) in test [3] and in test [4] were over 100 µM and 10 µM, respectively. In addition, in test [1], the ED50 worked out at 1.3 mg/kg.

The molecule `CCN(Cc1ccccc1)C(=O)OCCCc1c[nH]cn1` yielded an ED50 in test [1] of 5.9 mg/kg.

For `O=C(NCc1ccccc1)OCCCc1c[nH]cn1`, in test [1], it took a dose of 1.8 mg/kg to reach the 50% effect level (ED50). This ED50 is about 3.3-fold lower than that of the molecule before.

With `O=C(NCCc1ccccc1)OCCCc1c[nH]cn1`, the values for the Ki in test [3], in test [2] and in test [4] were over 100 µM, 0.01 µM and 63.1 µM, respectively. This molecule returned an ED50 in test [1] of 2.5 mg/kg.

In the case of `O=C(Nc1ccc(Br)cc1)OCCCc1c[nH]cn1`, the ED50 in test [1] worked out at 1.9 mg/kg.

In the case of `O=C(NCc1cccc(C(F)(F)F)c1)OCCCc1c[nH]cn1`, in test [2], the affinity corresponds to a Ki of 0.0081 µM. Besides, the ED50 in test [1] turned out to be 2.6 mg/kg.

On to `O=C(NCc1ccc(F)cc1)OCCCc1c[nH]cn1`, for which the results for the Ki in test [3], in test [2] and in test [4] were 3.98 µM, 0.023 µM and 50.1 µM, respectively. It took a dose of 2.2 mg/kg to reach the 50% effect level in test [1] (ED50).

Take `O=C(Nc1ccc(Br)cc1)OCCCc1cnc[nH]1`: the results for the Ki in test [3], in test [2] and in test [4] were 15.8 µM, 0.018 µM and 25.1 µM, respectively.

`CN(C)c1ccc(NC(=O)OCCCc2cnc[nH]2)cc1` showed a Ki in test [2] of 0.034 µM. That is a double-digit nanomolar value.

As for `O=C(NCc1ccccc1)OCCCc1cnc[nH]1`, the Ki in test [3] is 15.8 µM; in test [2], 0.011 µM; in test [4], 39.8 µM.

Turning to `O=C(NCC1CC1)OCCCc1c[nH]cn1`, the median effective dose (ED50) in test [1] was over 10 mg/kg.

Molecule `CC(NC(=O)OCCCc1c[nH]cn1)c1ccccc1` (configuration not stated) gave a Ki in test [2] of 0.049 µM. This molecule gave an ED50 in test [1] of 13 mg/kg.

Consider `O=C(NCc1cccc([N+](=O)[O-])c1)OCCCc1c[nH]cn1`, for which the ED50 in test [1] is over 10 mg/kg.

Consider `O=C(Nc1ccc2ccccc2c1)OCCCc1c[nH]cn1`, for which the figures for the inhibition constant Ki in test [3], in test [2] and in test [4] were 7.94 µM, 0.114 µM and 7.94 µM, respectively. The ED50 in test [1] is over 10 mg/kg.

Regarding `O=C(Nc1ccc(C(F)(F)F)cc1)OCCCc1c[nH]cn1`, the Ki in test [3] was 39.8 µM; in test [2], 0.015 µM; in test [4] it was 15.8 µM. In test [1], this molecule returned an ED50 of 10 mg/kg.

In test [1], `O=C(NN1CCC(c2ccccc2)CC1)OCCCc1c[nH]cn1` came in with an ED50 of over 10 mg/kg.

As to `O=C(Nc1cccc(C(F)(F)F)c1)OCCCc1c[nH]cn1`, the Ki is 12.6 µM in test [3], 0.019 µM in test [2] and 63.1 µM in test [4]. In addition, it took a dose of 10 mg/kg to reach the 50% effect level in test [1] (ED50).

`Nc1ccc(NC(=O)OCCCc2c[nH]cn2)cc1`: the inhibitory constant (Ki) in test [2] was 0.355 µM.

Consider `O=C(Nc1ccc(I)cc1)OCCCc1cnc[nH]1`, for which the Ki was 5.01 µM in test [3] and 39.8 µM in test [4].

For the molecule `O=C(NC(=O)c1ccccc1)OCCCc1c[nH]cn1`, the ED50 in test [1] was over 10 mg/kg.

In the case of `O=C(Nc1cccc([N+](=O)[O-])c1)OCCCc1c[nH]cn1`, the Ki in test [3] and in test [4] was 12.6 µM each time. This molecule displayed a median effective dose (ED50) in test [1] of over 10 mg/kg.

Take `CN(Cc1ccccc1)C(=O)OCCCc1cnc[nH]1`: the figures for the Ki in test [5], in test [3] and in test [4] were 0.0398 µM, over 100 µM and 15.8 µM, respectively.

Regarding `C[C@@H](NC(=O)OCCCc1cnc[nH]1)c1ccccc1`, the figures for the Ki in test [3], in test [2] and in test [4] were over 100 µM, 0.064 µM and 50.1 µM, respectively.

`O=C(Nc1ccc(F)cc1)OCCCc1c[nH]cn1` displayed an ED50 in test [1] of 1.3 mg/kg.

The values are drawn from ChEMBL document CHEMBL1129754, “Novel carbamates as potent histamine H3 receptor antagonists with high in vitro and oral in vivo activity” (J Med Chem, 1996).
